Where two headings read alike, the source gives them in different places.
Assays:
[1] = system: patients with type 1 diabetes; assay: Example 5: 16-week three arm trial, insulin detemir morning and pre-dinner, insulin detemir morning and bedtime, NPH insulin morning and bedtime, insulin aspart with meals; type: in vivo, human; conditions: for body weight at Baseline, Mean / body weight at End of trial, Mean: both detemir groups pooled; for body weight at End of trial, Mean: End of trial (16 weeks)
Protocol: All patients received insulin aspart (IAsp) with meals. The trial included a Screening Visit to assess patient eligibility and a Randomisation Visit (maximum 2 weeks after the Screening Visit). The following 16 week treatment period included 5 visits. In addition, patients were contacted every second day in the first two weeks (or longer if necessary) to ensure that optimal basal insulin dose was achieved fast and smoothly. A post-treatment telephone Follow-up was performed approximately one week after the last visit.
The study included 400 type 1 diabetic patients aged 18 or above with a BMI of ≦[…] and HbA1c<12%. The patients had had diabetes ≧12 months and had been treated on a basal/bolus regimen ≧2 months with a basal insulin requirement of ≧30% of the total daily insulin dose, and a total daily basal insulin dose below 100 IU. Patients were to have no major diabetic complications or other significant diseases.

[2] = system: patients with type 1 diabetes; conditions: for ANOVA of weight after 6 months of treatment, ITT, Mean (least square mean): type 1 diabetes, human soluble insulin as bolus, baseline weight as covariate
From the text: Material and Methods: A total of 460 patients with no clinically significant diseases or diabetic complications were exposed (287 men and 173 women).
(§1) The analysis is based upon an ANOVA model with treatment and country as fixed effects and weight at baseline as covariate.

[3] = system: patients with type 1 diabetes; conditions: for ANOVA of weight after 6 months of treatment, ITT, Mean (least square mean): insulin aspart as bolus; for HbA, levels: After 6 months; for plasma glucose at 07:00: nightly plasma glucose profile, p<0.05
From the text: One of the secondary objectives of the study was to compare the regimens in terms of the safety profile, including the body weight of the patients.
The analysis is based upon an ANOVA model with treatment as fixed effect and weight at baseline as covariate.

[4] = system: patients with type 1 diabetes; assay: Example 6: 16-week three-group trial, insulin detemir at 12-hour intervals, insulin detemir morning and bedtime, NPH morning and bedtime, insulin aspart at meals; type: in vivo, human; conditions: for average body weight gained: Morn_Bed groups; for body weight at Baseline, Mean / body weight at End of trial, Mean: both detemir groups pooled; for body weight at End of trial, Mean: End of trial (16 weeks)
Protocol: A 16 week, multi-centre, multi-national, open, randomised three-group parallel study comparing administration of insulin detemir at 12-hour intervals, insulin detemir morning and bedtime and NPH morning and bedtime in patients with type 1 diabetes
All patients received insulin aspart at meals. The trial included a Screening Visit to assess patient's eligibility and a Randomisation Visit, followed by a treatment period 16 of weeks. A post-treatment follow-up Visit was carried out approximately 1 week after the last visit.
The study included 409 type 1 diabetic patients aged 18 or above and HbA1c≦12%. The patients had had diabetes >12 months and had been treated on a basal (twice daily)/bolus regimen ≧2 months using an intermediate/long-acting insulin as a basal insulin and fast-acting human insulin or insulin analogue as bolus insulin.

[5] = system: patients with type 1 diabetes; assay: Example 3: 6-month open-label parallel trial, once daily insulin detemir vs NPH insulin, basal/bolus regimen with human soluble insulin; type: in vivo; conditions: for ANOVA of weight after 6 months of treatment, ITT, Mean (least square mean): once daily basal, human soluble insulin at meals; for body weight at End of trial, Mean: End of trial (6 months)
From the text: All patients were on a basal/bolus insulin regimen with human soluble insulin as meal-related insulin. […] The trial included a screening visit to assess patient eligibility and a randomisation visit (maximum 3 weeks after the screening visit) followed by a six-month treatment period. In order to achieve glycaemic control, the investigator had contact with the patients at least every other working day during the first two weeks of treatment or as long as necessary to achieve glycaemic control. A post-treatment follow-up visit was performed 2-6 days after the last visit.
The study included 750 type 1 diabetic patients aged 18 years or above and having a HbAtc≦12%. […] The patients were to have no major diabetic complications or other significant diseases.

[6] = system: patients with type 2 diabetes; assay: Example 4: 6-month open parallel trial, insulin detemir vs NPH insulin once or twice daily, basal/bolus regimen with NovoRapid; type: in vivo, human; conditions: for ANOVA of weight after 6 months of treatment, ITT, Mean (least square mean): NovoRapid with meals; for body weight at End of trial, Mean: End of trial (6 months)
From the text: Multicentre, open, randomised, parallel trial comprising a screening visit and a randomisation visit followed by a six month treatment period of basal/bolus therapy with either insulin detemir or NPH once or twice daily as needed. The patients received NovoRapid® with meals as bolus insulin throughout the trial.
The study included 506 type 2 diabetic patients aged 35 years or above with type 2 diabetes for ≧12 months treated with insulin or insulin analogues for at least 2 months, with a HbA1c≦12.0%, a basal insulin dose ≧30% of the total daily insulin dose and no other clinically relevant diseases were included in the trial.

[7] = system: adult patients with type 1 diabetes; assay: Example 1 b): 6-month extension trial (12 months of treatment), insulin detemir vs NPH insulin, human soluble insulin as meal related insulin; conditions: for ANOVA of weight after 12 months of treatment, ITT, Mean (least square mean): human soluble insulin as meal related insulin; for body weight at End of trial, Mean: End of trial (12 months)
From the text: (§2) All patients were on a basal (twice-daily)-bolus regimen with human soluble insulin as meal related insulin:
as §1

[8] = system: patients with type 1 diabetes; assay: Example 2 b): 6-month extension trial (12 months of treatment), insulin detemir vs NPH insulin, IAsp as meal related insulin; type: in vivo, human; conditions: for ANOVA of weight after 12 months of treatment, ITT, Mean (least square mean): IAsp as meal related insulin; for body weight at End of trial, Mean: End of trial (12 months)
From the text: A 6-month extension of a multi-centre, open-label, asymmetrically randomised, parallel trial.
Patients who agreed to participate in the extension period continued treatment without interruption.
Following completion of the 6-month initial period, the extension period included 3 visits (0, 3 and 6 months after the start of the extension period).
The patients were advised to maintain their usual diet and daily activities.
All patients who completed the 6-month treatment period in the trial described under Section a) above and who were able and willing to participate in the extension period were included. Thus, the Section b) trial included 316 patients.

[9] = system: adult patients with type 1 diabetes; conditions: in vivo
From the text: as §2, §1

[10] = 16 weeks, Morn_Bed (morning and bedtime)
[11] = 6 months, difference between treatments
[12] = 12 months, difference between treatments
[13] = 12 months, not statistically significant

NPH insulin: comparator basal insulin in the trials [reference compound]
ANOVA of Weight after 16 Weeks of Treatment, Adjusted for Change in HbA1c, ITT, Mean (least square mean) [1, 10]: 76.40 kg
body weight at Baseline, Mean [1]: 74.5 kg
body weight at End of trial, Mean [1]: 75.3 kg
average body weight gained during the trial ([2]; 6 months): 0.7 kg
ANOVA of weight after 6 months of treatment, ITT, Mean (least square mean) ([2]; 6 months): 76.5 kg
ANOVA of weight after 6 months of treatment, ITT, Mean (least square mean) ([3]; 6 months): 71.8 kg
HbA, levels [3]: 7.64%
plasma glucose at 07:00 [3]: 9.5 mM/L
average body weight gained ([3]; over 6 months): 0.7 kg
ANOVA of Weight after 16 Weeks of Treatment, Adjusted for Change in HbA1c, ITT, Mean (least square mean) [4, 10]: 76.04 kg
average body weight gained ([4]; 16 weeks): 0.7 kg
body weight at Baseline, Mean [4]: 74.5 kg
body weight at End of trial, Mean [4]: 75.3 kg
average body weight gained during the trial ([5]; 6 months): 0.4 kg
ANOVA of weight after 6 months of treatment, ITT, Mean (least square mean) ([5]; 6 months): 76.7 kg
body weight at Baseline, Mean [5]: 76.1 kg
body weight at End of trial, Mean [5]: 76.5 kg
increase of mean body weight ([6]; 6 months): 1.3 kg
ANOVA of weight after 6 months of treatment, ITT, Mean (least square mean) ([6]; 6 months): 88.6 kg
body weight at Baseline, Mean [6]: 89.7 kg
body weight at End of trial, Mean [6]: 91.0 kg
ANOVA of weight after 12 months of treatment, ITT, Mean (least square mean) ([7]; 12 months): 76.9 kg
weight gain ([7]; 12 months, statistically significant): 1.4 kg
body weight at Baseline, Mean [7]: 75.8 kg
body weight at End of trial, Mean [7]: 77.2 kg
proportion of patients with serious adverse events ([7]; during 12 months): 13.4%
average body weight gained during the trial ([8]; 12 months): 1.2 kg
ANOVA of weight after 12 months of treatment, ITT, Mean (least square mean) ([8]; 12 months): 72.8 kg
body weight at Baseline, Mean [8]: 71.5 kg
body weight at End of trial, Mean [8]: 72.7 kg

N^εB29-tetradecanoyl des(B30) human insulin [Insulin detemir]
Weight, Pairwise Comparison, Mean Difference Detemir Morn_Bed - NPH Morn_Bed ([1]; 16 weeks): -0.6 kg
Weight, Pairwise Comparison, Mean Difference Detemir Morn_Dinner - Detemir Morn_Bed ([1]; 16 weeks): -0.7 kg
Weight, Pairwise Comparison, Mean Difference Detemir Morn_Dinner - NPH Morn_Bed ([1]; 16 weeks): -1.3 kg
ANOVA of Weight after 16 Weeks of Treatment, Adjusted for Change in HbA1c, ITT, Mean (least square mean) [1, 10]: 75.81 kg
ANOVA of Weight after 16 Weeks of Treatment, Adjusted for Change in HbA1c, ITT, Mean (least square mean) ([1]; 16 weeks, Morn_Dinner (morning and pre-dinner)): 75.12 kg
Weight in both insulin detemir groups compared with NPH insulin ([1]; 16 weeks, statistically significant): lower
body weight at Baseline, Mean [1]: 76.3 kg
body weight at End of trial, Mean [1]: 76.2 kg
9-point blood glucose profiles, insulin detemir and NPH ([2]; 6 months): comparable
average body weight lost during the trial ([2]; 6 months): 0.5 kg
ANOVA of weight after 6 months of treatment, ITT, Mean (least square mean) ([2]; 6 months): 75.4 kg
HbA1c absolute mean difference between treatments (insulin detemir-NPH) ([2]; after 6 months, 95% CI [−0.05, 0.22]): 0.08 % point
number of patients with hypoglycaemic episodes between the two treatments ([2]; in vivo): not statistically significantly different
safety profiles between the two treatments ([2]; in vivo): comparable
intra-patient variation in fasting blood glucose (FBG) vs NPH ([2]; not statistically significant, p=0.06): tendency towards lower intra-patient variation
difference in FPG between treatments ([2]; p=0.78): No statistically significant difference
ANOVA of weight after 6 months of treatment, ITT, Mean (least square mean) ([3]; 6 months): 70.9 kg
Fasting plasma glucose difference, insulin detemir vs NPH insulin ([3]; 6 months, not statistically significant, p=0.097): -0.76 mM
difference in mean body weight between the groups ([3]; 6 months, statistically significant): 1 kg
HbA, levels [3]: 7.60%
Body weight (baseline adjusted) vs NPH insulin ([3]; at the end of the trial, p<0.001): significantly lower
general safety profile between the two treatments ([3]; in vivo): similar
plasma glucose at 07:00 [3]: 7.6 mM/L
average body weight lost ([3]; over 6 months, not statistically significant): 0.2 kg
shapes of the nightly plasma glucose profiles vs NPH insulin ([3]; p=0.05): smoother and more stable
Weight, Pairwise Comparison, Mean Diff. Detemir Morn_Bed - NPH Morn_Bed ([4]; 16 weeks): -0.6 kg
ANOVA of Weight after 16 Weeks of Treatment, Adjusted for Change in HbA1c, ITT, Mean (least square mean) ([4]; 16 weeks, 12 h_interval): 75.20 kg
average change of body weight ([4]; 16 weeks, 12 h_interval group): maintained their weight
ANOVA of Weight after 16 Weeks of Treatment, Adjusted for Change in HbA1c, ITT, Mean (least square mean) [4, 10]: 75.41 kg
average body weight gained ([4]; 16 weeks): 0.2 kg
Weight, Pairwise Comparison, Mean Diff. Detemir 12 h_interval - NPH Morn_Bed ([4]; 16 weeks, first comparison, p=0.0061): -0.8 kg
Weight, Pairwise Comparison, Mean Diff. Detemir 12 h_interval - NPH Morn_Bed ([4]; 16 weeks, third comparison as printed, p=0.4772): -0.2 kg
body weight at Baseline, Mean [4]: 76.3 kg
body weight at End of trial, Mean [4]: 76.2 kg
average body weight lost during the trial ([5]; 6 months): 0.2 kg
ANOVA of weight after 6 months, insulin detemir − NPH, Mean [5, 11]: -0.52 kg
ANOVA of weight after 6 months of treatment, ITT, Mean (least square mean) ([5]; 6 months): 76.2 kg
body weight at Baseline, Mean [5]: 76.5 kg
body weight at End of trial, Mean [5]: 76.3 kg
increase of mean body weight ([6]; 6 months): 0.4 kg
ANOVA of weight after 6 months of treatment, ITT, Mean (least square mean) ([6]; 6 months): 87.8 kg
ANOVA of weight after 6 months, insulin detemir − NPH, Mean [6, 11]: -0.79 kg
body weight at Baseline, Mean [6]: 85.4 kg
body weight at End of trial, Mean [6]: 85.8 kg
ANOVA of weight after 12 months, insulin detemir − NPH, Mean [7, 12]: -1.66 kg
ANOVA of weight after 12 months of treatment, ITT, Mean (least square mean) ([7]; 12 months): 75.2 kg
weight loss [7, 13]: 0.3 kg
body weight at Baseline, Mean [7]: 76.6 kg
body weight at End of trial, Mean [7]: 76.3 kg
HbA1c ([7]; after 12 months of treatment): 7.9%
difference in body weight between groups ([7]; after 12 months of treatment, p=0.002): 1.7 kg
ANOVA of weight after 12 months of treatment, ITT, Mean (least square mean) ([8]; 12 months): 71.5 kg
ANOVA of weight after 12 months, insulin detemir − NPH, Mean [8, 12]: -1.34 kg
average body weight lost during the trial [8, 13]: 0.1 kg
body weight at Baseline, Mean [8]: 71.4 kg
body weight at End of trial, Mean [8]: 71.3 kg
difference in body weight between the groups ([8]; after 12 months, statistically significant): 1.3 kg
proportion of patients with serious adverse events [9]: 9.1%
risk of hypoglycemia during the night, relative risk (detemir/NPH) [9]: 0.71
